Measured values: publication PMC10575960, “Functional characterization of a lytic polysaccharide monooxygenase from Schizophyllum commune that degrades non-crystalline substrates” (Scientific Reports, 2023)

Tests used:
NcLPMO9C = molecular target: T1, NcLPMO9C (Neurospora crassa, UniProt Q7SHI8); test: HPAEC-PAD product analysis; type: biochemical; conditions: 1 mM substrate, 1 µM LPMO, 1 mM ascorbic acid, 50 mM BisTris-HCl pH 6.5, 40 °C, 16 h
T1 construct: gene gh61-3; CBM1-containing enzyme, produced in Pichia pastoris as described earlier, copper-saturated
T1 sequence (Q7SHI8 17-359): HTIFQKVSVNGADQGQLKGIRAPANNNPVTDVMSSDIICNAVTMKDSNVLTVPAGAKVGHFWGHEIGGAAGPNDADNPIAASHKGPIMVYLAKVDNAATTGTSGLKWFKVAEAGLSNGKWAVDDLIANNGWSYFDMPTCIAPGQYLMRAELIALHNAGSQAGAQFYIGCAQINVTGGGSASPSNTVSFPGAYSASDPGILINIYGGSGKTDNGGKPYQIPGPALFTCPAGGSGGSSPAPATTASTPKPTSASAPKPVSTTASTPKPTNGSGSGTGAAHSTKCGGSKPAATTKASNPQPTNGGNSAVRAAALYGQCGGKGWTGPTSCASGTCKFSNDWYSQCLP

ScLPMO9A = molecular target: T2, ScLPMO9A (Schizophyllum commune, UniProt D8Q364); test: NMR titration, […]-HSQC chemical shift perturbation; type: binding; conditions: copper-free apo enzyme, 15N-labelled, 25 mM Tris-HCl pH 7.0, 25 mM NaCl, 2.3% glycerol, 25 °C
T2 construct: gene LPMO9A; residues 20-247, pelB signal peptide for periplasmic export, E. coli T7 Express, no tag told; single domain without CBM; 15N-labelled copper-free (apo) protein for NMR
T2 sequence (D8Q364 20-247): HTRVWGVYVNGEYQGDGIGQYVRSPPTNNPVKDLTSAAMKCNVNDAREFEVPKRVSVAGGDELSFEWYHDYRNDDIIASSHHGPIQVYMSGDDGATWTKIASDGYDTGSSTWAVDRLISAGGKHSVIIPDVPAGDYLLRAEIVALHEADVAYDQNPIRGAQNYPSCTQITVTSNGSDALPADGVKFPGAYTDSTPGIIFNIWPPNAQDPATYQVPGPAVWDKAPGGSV

Kd (ScLPMO9A; range from four 1H-15N signals) [µM] | Kd (ScLPMO9A; range from two 1H-15N signals) [µM] | Compound | HPAEC-PAD product analysis (NcLPMO9C)
10 to 40 |  | OC[C@H]1O[C@@H](O[C@H]2[C@H](O)[C@@H](O)[C@H](O[C@H]3[C@H](O)[C@@H](O)[C@H](O[C@H]4[C@H](O)[C@@H](O)[C@H](O[C@H]5[C@H](O)[C@@H](O)[C@H](O[C@H]6[C@H](O)[C@@H](O)C(O)O[C@@H]6CO)O[C@@H]5CO)O[C@@H]4CO)O[C@@H]3CO)O[C@@H]2CO)[C@H](O)[C@@H](O)[C@@H]1O (stereo partly shown) [cellohexaose] | With cellohexaose (Glc6), NcLPMO9C generated primarily Glc4gemGlc and cellotetraose
 |  | OC[C@H]1O[C@@H](O[C@H]2[C@H](O)[C@@H](O)[C@H](O[C@H]3[C@H](O)[C@@H](O)[C@H](O[C@H]4[C@H](O)[C@@H](O)C(O)O[C@@H]4CO)O[C@@H]3CO)O[C@@H]2CO)[C@H](O)[C@@H](O)[C@@H]1O (stereo partly shown) [cellotetraose] | NcLPMO9C showed limited activity on cellotetraose (Glc4)
 | 30 to 50 | OC[C@H]1O[C@@H](O[C@H]2[C@H](O)[C@@H](O)[C@H](O[C@H]3[C@H](O)[C@@H](O)[C@H](O[C@H]4[C@H](O)[C@@H](O)[C@H](O[C@H]5[C@H](O)[C@@H](O)C(O)O[C@@H]5CO)O[C@@H]4CO)O[C@@H]3CO)O[C@@H]2CO)[C@H](O)[C@@H](O)[C@@H]1O (stereo partly shown) [cellopentaose] | 
